Measured values published in patent US20050245508A1, “Treatment of malignant gliomas with TGF-beta inhibitors” (SCIOS, Inc., priority 2003, published 2005).

How the values were obtained:
LN-308 glioma cells [1] = experiment: Glioma cell growth, [methyl-3H]-thymidine incorporation; type: cell-based, human
Protocol: (§1) FIG. 2. Abrogation of autocrine TGF-β signaling in glioma cells by Compound No. 79. A. The cells were seeded at 10^4 cells/well in 96 well plates and cultured in the absence or presence of Compound No. 79 for 48 h in serum-free medium. Growth was assessed by [methyl-^3H]-thymidine incorporation at 48 h (*p<0.05, t-test). B. Lysates from untreated glioma cells or cells preexposed to Compound No. 79 (1 μM) for 24 h or exposed to TGF-b2 (5 ng/ml) for 1 h or both were assessed for the levels of p-Smad2 or total Smad2/3. Note that the antibodies were specific to p-Smad2 and total Smad 2 and 3, respectively.
(§2) The glioma cells and CCL64 cells were maintained in DMEM supplemented with 2 mM L-glutamine (Gibco Life Technologies, Paisley, UK), 10% FCS (Biochrom KG, Berlin, Germany) and penicillin (100 IU/ml)/streptomycin (100 μg/ml) (Gibco). Growth and viability of the glioma cells was examined by crystal violet, LDH release (Roche, Mannheim, Germany) and trypan blue dye exclusion assays. To assess clonogenicity, 500 SMA-560 cells were seeded into 6 well plates (9.4 cm^2). After formation of visible cell formations, colonies>20 cells were counted.

LN-308 glioma cells [2] = experiment: Cytotoxicity, LDH release and trypan blue dye exclusion; type: cell-based, human; details: up to 1 μM for 72 h
Protocol: as §2

SMA-560 glioma cells = experiment: as above; type: cell-based, murine; details: up to 1 μM for 72 h
Protocol: as §2

LN-308 glioma cells [3] = experiment: Flow cytometric cell cycle analysis; type: cell-based, human; details: 0.01, 0.1 or 1 μM, 48 h, data not shown
Protocol: The adherent glioma cells were detached nonenzymatically using cell dissociation solution (Sigma). Cell cycle analysis was performed by using fixed and permeabilized glioma cells (70% ethanol). RNA was digested with RNase A (Life Technologies, Inc.). DNA was stained with propidium iodide (50 μg/ml).

glioma cells = experiment: Viability of glioma cells in response to serum deprivation; type: cell-based; details: data not shown
Protocol: as §2

Smad2 phosphorylation = experiment: Immunoblot of p-Smad2 and total Smad2/3 in glioma cells; type: cell-based
Protocol: as §1
The levels of phosphorylated Smad2 (p-Smad2) protein levels were analyzed by immunoblot using 20 μg of protein per lane on a 12% acrylamide gel. After transfer to a PVDF membrane (Amersham, Braunschweig, Germany), the blots were blocked in PBS containing 5% skim milk and 0.05% Tween 20, and incubated overnight at 4° C. with p-Smad2 antibody (2 μg/ml). Visualization of protein bands was accomplished using horseradish peroxidase-coupled secondary antibody (Sigma) and enhanced chemiluminescence (Amersham). Total Smad2/3 levels were assessed using a specific Smad2/3 antibody (Becton-Dickinson).

[4] = tested on: splenocytes / LAK cells against SMA-560; experiment: Ex vivo immune effector assays, splenocytes of glioma-bearing mice; type: in vivo, VM/Dk mice
Protocol: FIG. 4. Compound No. 79 inhibits the growth of syngeneic SMA-560 experimental gliomas in vivo and promotes immune activation. A. VM/Dk mice received an intracranial injection of 5×10^3 SMA-560 cells. Three days later treatment with Compound No. 79 was initiated, and survival was monitored. B. The animals were treated as in A, but were sacrificed on day 10 to obtain splenocytes. IFN-γ release at 24 h was assessed by Elispot. Data are expressed as cytokine-producing cells per 10^6 effector cells. C. The splenocytes were stimulated with IL-2 for 10 days to generate LAK cells. Their lytic activity was measured by ^51Cr release using SMA-560 as target cells (vehicle, open squares; Compound No. 79, filled squares) (*p<0.05, t-test).
IL-10, TNF-α and IFN-γ release by immune effector cells was assessed by Elispot assay in a multiscreen-HA 96 well plate (Millipore, Eschborn, Germany), coated with corresponding anti-human capture antibodies (Becton Dickinson). Briefly, 5×10^4 glioma cells were cocultured for 24 h with 105, 2.5×105 or 5×105 HLA-A2-mismatched, prestimulated (5 days) PBL. The cells were removed using double-distilled water, and captured cytokines were visualized using biotinylated antibodies and streptavidin-alkaline phosphatase (Becton Dickinson). Spots were counted on an Elispot reader system (AID, Straβberg, Germany). […]

Fc1ccc(Cl)cc1-c1nc(Nc2ccncc2)c2nccnc2n1 [Compound No. 79]
proliferation (LN-308 glioma cells [1]; concentrations required to block TGF-β in the CCL64 bioassay, 48 h): no effect
growth (LN-308 glioma cells [1]; higher concentrations of up to 1 μM, FIG. 2A): moderately inhibited
cytotoxic effects (LN-308 glioma cells [2]): neiter LDH release nor trypan blue dye exclusion assays revealed cytotoxic effects
cytotoxic effects (SMA-560 glioma cells): neiter LDH release nor trypan blue dye exclusion assays revealed cytotoxic effects
cell cycle arrest (LN-308 glioma cells [3]): no specific type of cell cycle arrest
viability in response to serum deprivation (glioma cells): did not modulate
total cellular Smad2/3 levels (Smad2 phosphorylation; 1 μM 24 h, FIG. 2B): without altering
Smad2 phosphorylation by endogenous or exogenous TGF-β (Smad2 phosphorylation; 1 μM 24 h preexposure, TGF-β2 5 ng/ml 1 h, FIG. 2B): interfered with Smad2 phosphorylation
pSmad phosphorylation signal in untreated glioma cells (Smad2 phosphorylation; no exogenous TGF-β): abolished
animals with increase over background of IFN-γ release by splenocytes ([4]; Elispot, day 7 after initiation of treatment, control 1 of 5, FIG. 4B): 3 of 5
lytic activity of LAK cells against SMA-560 targets ([4]; splenocytes stimulated with IL-2 for 10 days, 51Cr release, FIG. 4C): enhanced lytic activity
